Source: ChEMBL document CHEMBL1126321, “Antitumor agents. 123. Synthesis and human DNA topoisomerase II inhibitory activity of 2'-chloro derivatives of etoposide and 4 beta-(arylamino)-4'-O-demethylpodophyllotoxins” (J Med Chem, 1992)

Experiments:
[1] = test system: Nucleic Acid; experiment: Effect on cellular protein DNA complex formation(%) at 10 uM in comparison with etoposide; format: functional
[2] = biological target: T1, DNA topoisomerase II (Homo sapiens) (UniProt P11388+Q02880); experiment: Evaluated for the inhibition of human DNA Topoisomerase II; format: protein assay
[3] = Concentration required for 50% reduction in KB cell number after 3-day incubation; format: functional, cell-based, Homo sapiens
[4] = biological target: T1, DNA topoisomerase II (Homo sapiens); experiment: Compound was evaluated for the inhibition of human DNA Topoisomerase II; format: protein assay

Row | ID50 [2] | IC50 [3] | ID50 [4] | Structure (SMILES) | Complex formation [1]
1 | > 100 µM | > 7.2 µM | – | COc1cc([C@@H]2c3cc4c(cc3[C@@H](Nc3ccc5c(c3)OCO5)[C@H]3COC(=O)[C@H]23)OCO4)c(Cl)c(OC)c1O | 0%
2 | – | > 7.2 µM | > 100 µM | COc1cc([C@@H]2c3cc4c(cc3[C@@H](Nc3ccc([N+](=O)[O-])cc3)[C@H]3COC(=O)[C@H]23)OCO4)c(Cl)c(OC)c1O | 0%
3 | > 50 µM | > 6.4 µM | – | COc1cc([C@@H]2c3cc4c(cc3[C@@H](O[C@@H]3O[C@@H]5CO[C@@H](C)O[C@H]5[C@H](O)[C@H]3O)[C@H]3COC(=O)[C@H]23)OCO4)c(Cl)c(OC)c1O | 6.1%
4 | > 50 µM | > 22.3 µM | – | COc1cc([C@@H]2c3cc4c(cc3[C@@H](O)[C@H]3COC(=O)[C@H]23)OCO4)c(Cl)c(OC)c1O | 15.6%
5 | > 100 µM | > 7.2 µM | – | COc1cc([C@@H]2c3cc4c(cc3[C@@H](Nc3cccc([N+](=O)[O-])c3)[C@H]3COC(=O)[C@H]23)OCO4)c(Cl)c(OC)c1O | 0%
6 | > 100 µM | > 7 µM | – | COc1cc([C@@H]2c3cc4c(cc3[C@@H](Nc3ccc5c(c3)OCCO5)[C@H]3COC(=O)[C@H]23)OCO4)c(Cl)c(OC)c1O | 0%
7 | > 100 µM | > 7.5 µM | – | COc1cc([C@@H]2c3cc4c(cc3[C@@H](Nc3ccc(F)cc3)[C@H]3COC(=O)[C@H]23)OCO4)c(Cl)c(OC)c1O | 0%
8 | > 100 µM | 5.7 µM | – | COc1cc([C@@H]2c3cc4c(cc3[C@@H](Nc3cccc(O)c3)[C@H]3COC(=O)[C@H]23)OCO4)c(Cl)c(OC)c1O | 0%
9 | > 100 µM | > 7.3 µM | – | COc1cc([C@@H]2c3cc4c(cc3[C@@H](Nc3ccc(Cl)cc3)[C@H]3COC(=O)[C@H]23)OCO4)c(Cl)c(OC)c1O | 0%
10 | > 100 µM | > 6.8 µM | – | COc1cc([C@@H]2c3cc4c(cc3[C@@H](Nc3ccc(Br)cc3)[C@H]3COC(=O)[C@H]23)OCO4)c(Cl)c(OC)c1O | 0%
11 | 10 µM | 0.68 µM | – | COc1cc([C@@H]2c3cc4c(cc3[C@@H](Nc3ccc5c(c3)OCO5)[C@H]3COC(=O)[C@H]23)OCO4)cc(OC)c1O | 279%

Row | Structure (SMILES) | ID50 [2] | IC50 [3] | ID50 [4] | Complex formation [1]
12 | COc1cc([C@@H]2c3cc4c(cc3[C@@H](Nc3ccc([N+](=O)[O-])cc3)[C@H]3COC(=O)[C@H]23)OCO4)cc(OC)c1O | – | 0.49 µM | – | 323%
13 | COc1cc([C@@H]2c3cc4c(cc3[C@@H](Nc3cccc(O)c3)[C@H]3COC(=O)[C@H]23)OCO4)cc(OC)c1O | – | 0.45 µM | – | 290%
14 | COc1cc([C@@H]2c3cc4c(cc3[C@@H](O[C@@H]3O[C@@H]5CO[C@@H](C)O[C@H]5[C@H](O)[C@H]3O)[C@H]3COC(=O)[C@H]23)OCO4)cc(OC)c1O [ETOPOSIDE] | – | 0.2 µM | – | 100%
15 | COc1cc([C@@H]2c3cc4c(cc3[C@@H](Nc3ccc(F)cc3)[C@H]3COC(=O)[C@H]23)OCO4)cc(OC)c1O | – | 0.24 µM | – | 213%
